# Key:
# [1] = tested on: human breast cancer cells (Bacp-37); test: Activities against transplanted human breast cancer tumor in mice; assay type: in vivo, Balb/c-nu/nu nude mice; conditions: Bacp-37 xenograft, 20 days after administration; for Inhibition rate (%): tumor weight vs control group
# Experimental: (§1) Balb/c-nu/nu nude mice (5 to 7 weeks old, 16-20 g) were randomly grouped. The mice were inoculated subcutaneously with 0.1 ml of a cell suspension containing 10^6 human breast cancer cells (Bacp-37). Upon the tumor volume having reached 50 mm^3, the mice were intravenously injected with a dose of a conjugate or a free drug. Twenty days after the administration, the animals were sacrificed and their body weight and tumor weight were measured.
# [2] = tested on: human liver cancer cells (HepG2); test: Activities against transplanted human liver cancer tumor in mice; assay type: in vivo, Balb/c-nu/nu nude mice; conditions: HepG2 xenograft, 20 days after administration; for Inhibition rate (%): tumor weight vs control group
# Experimental: as §1, with “liver” for “breast”, “(HepG2).” for “(Bacp-37).”, “measured. Tumor inhibition rate was calculated according to the following equation: […]” for “measured.”
# [3] = single i.v. dose 100 mg/kg (as free drug)
compound,measurement,setting,value
[N-acetyl-poly-(L)-glutamic acid]-[2′-O-(glycyl)-paclitaxel] conjugate [Compound I4],Weight of tumor,[1]; i.v. 100 mg/kg,0.42 g
same,Inhibition rate (%),[1]; i.v. 100 mg/kg,69.56%
[N-acetyl-poly-(L)-glutamic acid]-[2′-O-(L-isoleucyl)-docetaxel] conjugate [Compound I18],Weight of tumor,[1]; i.v. 100 mg/kg,0.73 g
same,Inhibition rate (%),[1]; i.v. 100 mg/kg,47.10%
[N-acetyl-poly-(L)-glutamic acid]-[2′-O-(L-alanyl)-docetaxel] conjugate [Compound I12],Weight of tumor,[1]; i.v. 100 mg/kg,0.34 g
same,Inhibition rate (%),[1]; i.v. 100 mg/kg,75.36%
[N-acetyl-poly-(L)-glutamic acid]-[2′-O-(L-valyl)-paclitaxel] conjugate [Compound I22],Weight of tumor,[1]; i.v. 100 mg/kg,0.41 g
same,Inhibition rate (%),[1]; i.v. 100 mg/kg,70.29%
CC(=O)O[C@@]12CO[C@@H]1C[C@H](O)[C@@]1(C)C(=O)[C@H](O)C3=C(C)[C@@H](OC(=O)[C@H](O)[C@@H](NC(=O)OC(C)(C)C)c4ccccc4)C[C@@](O)([C@@H](OC(=O)c4ccccc4)[C@H]21)C3(C)C [Docetaxel],Change of body weight (g),[1]; i.v. 100 mg/kg,+6.29 g
same,Weight of tumor,[1]; i.v. 100 mg/kg,0.35 g
same,Number of animals (final/initial),[1]; single i.v. dose 100 mg/kg,6/6
same,Change of body weight (g),[2]; i.v. 100 mg/kg (as free drug),+6.92 g
same,Weight of tumor,[2]; i.v. 100 mg/kg (as free drug),0.56 g
same,Inhibition rate (%),[2]; i.v. 100 mg/kg (as free drug),55.56%
same,Number of animals (final/initial),[2]; [3],6/6
[N-acetyl-poly-(L)-glutamic acid]-[2′-O-(glycyl)-docetaxel] conjugate [Compound I6],Weight of tumor,[1]; i.v. 100 mg/kg,0.47 g
same,Inhibition rate (%),[1]; i.v. 100 mg/kg,65.94%
CC(=O)O[C@H]1C(=O)[C@@]2(C)[C@H]([C@H](OC(=O)c3ccccc3)[C@]3(O)C[C@H](OC(=O)[C@H](O)[C@@H](NC(=O)c4ccccc4)c4ccccc4)C(C)=C1C3(C)C)[C@]1(OC(C)=O)CO[C@@H]1C[C@@H]2O [Paclitaxel],Change of body weight (g),[1]; i.v. 100 mg/kg,+5.91 g
same,Weight of tumor,[1]; i.v. 100 mg/kg,0.48 g
same,Inhibition rate (%),[1]; i.v. 100 mg/kg,65.22%
same,Number of animals (final/initial),[1]; single i.v. dose 100 mg/kg,5/6
same,Change of body weight (g),[2]; i.v. 100 mg/kg (as free drug),+5.38 g
same,Weight of tumor,[2]; i.v. 100 mg/kg (as free drug),0.54 g
same,Inhibition rate (%),[2]; i.v. 100 mg/kg (as free drug),57.14%
same,Number of animals (final/initial),[2]; [3],5/6
[N-acetyl-poly-(L)-glutamic acid]-[2′-O-(L-alanyl)-paclitaxel] conjugate [Compound I10],Weight of tumor,[1]; i.v. 100 mg/kg,0.29 g
same,Inhibition rate (%),[1]; i.v. 100 mg/kg,78.99%
[N-acetyl-poly-(L)-glutamic acid]-[5′-O-(L-alanyl)-gemcitabine] conjugate [Compound I8],Weight of tumor,[1]; i.v. 5 mg/kg,0.39 g
same,Inhibition rate (%),[1]; i.v. 5 mg/kg,71.73%
[poly-(L)-glutamic acid]-[5′-O-(glycyl)-gemcitabine] conjugate [Compound I1],Weight of tumor,[1]; i.v. 5 mg/kg,0.46 g
same,Inhibition rate (%),[1]; i.v. 5 mg/kg,71.01%
Nc1ccn([C@@H]2O[C@H](CO)[C@@H](O)C2(F)F)c(=O)n1 [Gemcitabine],Change of body weight (g),[1]; i.v. 5 mg/kg,+5.08 g
same,Weight of tumor,[1]; i.v. 5 mg/kg,0.51 g
same,Inhibition rate (%),[1]; i.v. 5 mg/kg,63.08%
same,Number of animals (final/initial),[1]; single i.v. dose 5 mg/kg,5/6
same,Change of body weight (g),[2]; i.v. 5 mg/kg (as free drug),+4.77 g
same,Weight of tumor,[2]; i.v. 5 mg/kg (as free drug),0.45 g
same,Inhibition rate (%),[2]; i.v. 5 mg/kg (as free drug),64.28%
same,Number of animals (final/initial),[2]; single i.v. dose 5 mg/kg (as free drug),4/6

# — US20120041167A1, “POLY(GLUTAMIC ACID)-DRUG CONJUGATE WITH AN AMINO ACID AS A LINKER” (Institute of Pharmacology and Toxicology Academy of …, priority 2006, published 2012)
